In US10905651B1, “Zeinmersome nanocarriers for drug delivery to the liver” (King Abdulaziz University, priority 2020, dated 2021):

Assays:
[1] = cited from earlier work
AT2 receptors = molecular target: T1, AT2 receptors (Homo sapiens, UniProt P50052); settings: cited from earlier work
T1 sequence (P50052 1-363): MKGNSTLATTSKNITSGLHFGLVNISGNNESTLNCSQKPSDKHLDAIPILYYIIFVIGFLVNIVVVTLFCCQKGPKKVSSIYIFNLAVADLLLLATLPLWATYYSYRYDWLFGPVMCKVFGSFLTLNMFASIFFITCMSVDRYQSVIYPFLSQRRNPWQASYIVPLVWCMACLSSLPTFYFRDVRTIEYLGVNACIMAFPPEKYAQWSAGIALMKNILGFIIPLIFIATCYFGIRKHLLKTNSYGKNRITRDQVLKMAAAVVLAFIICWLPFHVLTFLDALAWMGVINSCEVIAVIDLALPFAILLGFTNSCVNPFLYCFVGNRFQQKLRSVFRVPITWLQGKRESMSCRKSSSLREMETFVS

AT4 receptors = settings: cited from earlier work
fructose-fed rats = settings: 0.1 mg/kg/day; cited from earlier work
[2] = system: TAA-induced hepatic fibrosis rats; assay: Histopathology of hepatic sections in TAA-induced hepatic fibrosis rats; assay type: in vivo, rat; settings: two months, H&E
Procedure: Rats were given freshly prepared TAA (0.9% w/v in saline solution, 200 mg/kg, ip) twice weekly for eight weeks. A normal control (NC) group of rats (n=8) received injections of the vehicle twice weekly for eight weeks. The TAA-treated rats were randomly assigned to groups (n=8), including a test group for each dosage of a free drug (not encapsulated in ZMS), each dosage of zeinmersomes encapsulating the drug, and a positive control group (PC) having hepatic fibrosis but receiving a vehicle-only treatment instead of a drug treatment. Five groups of rats (n=8) were given freshly prepared TAA (0.9% w/v in saline solution, 200 mg/kg, ip) twice weekly for eight weeks and a normal control (NC) group received vehicle injections, as described in Example 4. The five TAA groups included a positive control group (PC, untreated) and four groups treated with low and high doses (2 and 4 mg/kg/day) of OM as raw drug (OL & OH, respectively) and the same low and high doses (2 and 4 mg/kg/day) of OM formulated as zeinmersomes (OLZMS & OHZMS, respectively). […] The plasma levels of ALT and AST and the homogenate levels of IL-6, reduced glutathione (GSH), TNF-α, malondialdehyde (MDA), and protein content were measured using ELISA kits (MyBioSource, Inc. CA, USA). In addition, the concentrations of olmesartan in plasma and liver homogenate were measured by HPLC/MS. […]

In the case of CCCc1nc(C(C)(C)O)c(C(=O)OCc2oc(=O)oc2C)n1Cc1ccc(-c2ccccc2-c2nnn[nH]2)cc1 [OM, (5-methyl-2-oxo-1,3-dioxol-4-yl)methyl 5-(2-hydroxypropan-2-yl)-2-propyl-3-[[4-[2-(2H-tetrazol-5-yl)phenyl]phenyl]methyl]imidazole-4-carboxylate], the drug accumulation ([1]; OM once daily for 10 days) is listed as “did not result in drug accumulation”, the “dose at which safe and well tolerated” value ([1]; Schwocho et al. 2001) is listed as “up to 160 mg/day” and the “time for plasma olmesartan to approach steady state” value ([1]; treatment with OM) is listed as 5 days. The “antagonistic effects on the AT2 receptors” value (AT2 receptors) was “almost no antagonistic effects”, the “antagonistic effects on the AT4 receptors” value (AT4 receptors) was “almost no antagonistic effects” and the TNF-α level (fructose-fed rats) was “reduced”. For the same molecule, the “cAMP level in the soleus muscle” value (fructose-fed rats) was “increased”, the “liver histopathology (fibrosis, inflammatory infiltration, hepatocytic degeneration)” value ([2]; high dose 4 mg/kg/day oral) was “mild improvement” and the “liver histopathology (fibrosis, inflammatory infiltration, hepatocytic degeneration)” value ([2]; low dose 2 mg/kg/day oral) was “no improvement”.
